{
  "source": "patent US9884828B2",
  "about": "“Substituted cinnolines as inhibitors of LRRK2 kinase activity” (Imago Pharmaceuticals, Inc., priority 2011, dated 2018)",
  "data": [
    {"molecular_target": "recombinant GST-LRRK2 (wild-type) (Homo sapiens (Human), UniProt Q5S007)", "sequence (Q5S007 whole entry)": "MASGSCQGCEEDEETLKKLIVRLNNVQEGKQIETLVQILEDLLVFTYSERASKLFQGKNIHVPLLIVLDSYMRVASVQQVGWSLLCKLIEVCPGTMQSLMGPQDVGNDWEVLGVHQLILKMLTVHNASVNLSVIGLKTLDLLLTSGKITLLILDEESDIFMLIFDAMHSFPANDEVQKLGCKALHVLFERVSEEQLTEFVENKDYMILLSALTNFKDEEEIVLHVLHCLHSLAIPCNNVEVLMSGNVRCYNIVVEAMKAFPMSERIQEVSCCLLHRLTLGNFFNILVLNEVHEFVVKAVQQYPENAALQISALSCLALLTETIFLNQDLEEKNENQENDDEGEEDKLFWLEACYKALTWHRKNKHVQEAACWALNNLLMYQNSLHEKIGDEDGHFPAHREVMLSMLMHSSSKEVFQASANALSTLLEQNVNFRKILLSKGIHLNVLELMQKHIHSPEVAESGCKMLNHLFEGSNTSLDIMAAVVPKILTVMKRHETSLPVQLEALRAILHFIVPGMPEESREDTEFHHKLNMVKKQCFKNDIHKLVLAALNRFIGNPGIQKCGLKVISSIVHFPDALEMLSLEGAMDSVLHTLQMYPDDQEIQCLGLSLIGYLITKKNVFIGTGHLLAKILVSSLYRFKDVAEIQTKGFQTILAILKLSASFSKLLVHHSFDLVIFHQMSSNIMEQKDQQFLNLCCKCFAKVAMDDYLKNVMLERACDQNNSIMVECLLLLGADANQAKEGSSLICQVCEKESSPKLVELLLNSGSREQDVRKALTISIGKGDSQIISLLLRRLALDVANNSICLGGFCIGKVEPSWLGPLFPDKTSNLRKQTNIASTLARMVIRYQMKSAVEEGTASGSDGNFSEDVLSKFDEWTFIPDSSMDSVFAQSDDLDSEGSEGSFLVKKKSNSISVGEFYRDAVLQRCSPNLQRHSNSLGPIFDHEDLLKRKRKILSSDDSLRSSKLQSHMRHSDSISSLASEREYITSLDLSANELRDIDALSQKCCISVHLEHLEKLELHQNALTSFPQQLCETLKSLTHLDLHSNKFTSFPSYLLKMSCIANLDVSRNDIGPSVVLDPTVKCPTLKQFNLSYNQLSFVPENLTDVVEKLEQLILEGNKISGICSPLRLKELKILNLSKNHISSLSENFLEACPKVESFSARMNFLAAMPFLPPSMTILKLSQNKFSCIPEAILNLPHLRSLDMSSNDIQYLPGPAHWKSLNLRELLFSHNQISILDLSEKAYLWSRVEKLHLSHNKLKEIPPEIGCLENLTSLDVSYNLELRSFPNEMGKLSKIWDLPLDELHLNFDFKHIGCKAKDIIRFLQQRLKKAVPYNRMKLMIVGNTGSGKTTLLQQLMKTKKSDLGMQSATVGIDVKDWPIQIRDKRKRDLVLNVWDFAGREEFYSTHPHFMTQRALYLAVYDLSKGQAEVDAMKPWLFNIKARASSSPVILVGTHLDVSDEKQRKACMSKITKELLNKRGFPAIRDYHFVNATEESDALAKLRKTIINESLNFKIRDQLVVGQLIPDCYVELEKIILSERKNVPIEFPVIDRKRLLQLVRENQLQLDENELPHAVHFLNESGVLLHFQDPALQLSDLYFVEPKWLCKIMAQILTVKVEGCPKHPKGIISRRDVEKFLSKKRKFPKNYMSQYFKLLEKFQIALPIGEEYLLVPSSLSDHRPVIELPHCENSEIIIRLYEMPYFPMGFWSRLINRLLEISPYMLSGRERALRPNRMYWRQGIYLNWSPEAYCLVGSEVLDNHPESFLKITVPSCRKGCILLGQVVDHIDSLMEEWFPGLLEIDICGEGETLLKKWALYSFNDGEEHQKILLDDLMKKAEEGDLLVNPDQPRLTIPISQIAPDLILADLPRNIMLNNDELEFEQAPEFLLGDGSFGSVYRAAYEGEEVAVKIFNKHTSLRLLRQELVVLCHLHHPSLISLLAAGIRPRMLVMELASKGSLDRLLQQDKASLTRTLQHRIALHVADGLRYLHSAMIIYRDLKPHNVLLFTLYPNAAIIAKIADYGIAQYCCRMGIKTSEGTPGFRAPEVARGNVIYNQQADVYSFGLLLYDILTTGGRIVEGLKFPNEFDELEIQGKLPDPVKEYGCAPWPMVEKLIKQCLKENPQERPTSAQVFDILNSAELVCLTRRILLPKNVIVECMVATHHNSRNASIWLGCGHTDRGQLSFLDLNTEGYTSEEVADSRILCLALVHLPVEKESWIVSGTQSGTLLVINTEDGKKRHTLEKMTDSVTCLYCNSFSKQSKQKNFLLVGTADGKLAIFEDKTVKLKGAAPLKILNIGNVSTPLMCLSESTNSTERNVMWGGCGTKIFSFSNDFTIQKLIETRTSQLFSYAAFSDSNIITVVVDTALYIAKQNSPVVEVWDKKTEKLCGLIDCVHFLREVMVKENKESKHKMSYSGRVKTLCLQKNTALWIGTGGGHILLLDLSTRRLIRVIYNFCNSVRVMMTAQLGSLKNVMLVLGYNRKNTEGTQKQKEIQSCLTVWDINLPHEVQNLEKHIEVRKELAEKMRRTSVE", "assay": "LRRK2 TR-FRET peptide assay (in vitro kinase activity), wild-type", "format": "biochemical", "conditions": "100 μM ATP, 100 nM biotin-LRRKtide substrate, 10 nM kinase, 60 minutes at room temperature", "method": "Compounds as described herein (compounds of Formula I, e.g., compounds of the above Examples) are tested for their in vitro kinase activities using various LRRK2 (including LRRK2 G2019S mutant) assays. […] Serially diluted compounds (1% DMSO as co-solvent) were pre-incubated with recombinant GST-LRRK2 (wild-type, or G2019S mutant, Invitrogen) for 15 minutes at room temperature in 384-well Corning black plates. […] The inhibition of each well was calculated using the control and background readings for that plate. IC50 values were determined from dose-response curves using eight concentrations from the serial dilution of the test compounds.", "units": {"IC50": "nM"}, "values": [
      {"smiles": "CC(C)Nc1c(C(N)=O)nnc2cc(-n3cccn3)ccc12", "note": "[Compound 4-80, 4-(isopropylamino)-7-(1H-pyrazol-1-yl)cinnoline-3-carboxamide]", "IC50": 31},
      {"smiles": "COc1cc(Br)ccc1-c1ccc(OC)c(-c2ccc3c(N[C@H](C)C4CC4)c(C(N)=O)nnc3c2)c1", "note": "[Compound 2-203, (R)-7-(4′-bromo-2′,4-dimethoxybiphenyl-3-yl)-4-(1-cyclopropylethylamino)cinnoline-3-carboxamide]", "IC50": 8700},
      {"smiles": "CC(C)Nc1c(C(N)=O)nnc2cc(-c3cccnc3)ccc12", "note": "[Compound 2-57, 4-(isopropylamino)-7-(pyridin-3-yl)cinnoline-3-carboxamide]", "IC50": 33},
      {"smiles": "C[C@@H](Nc1c(C(N)=O)nnc2cc(-c3ccc(N4CCOC4=O)cc3)ccc12)C1CC1", "note": "[Compound 9-213, (R)-4-(1-cyclopropylethylamino)-7-(4-(2-oxooxazolidin-3-yl)phenyl)cinnoline-3-carboxamide]", "IC50": 1},
      {"smiles": "C[C@@H](Nc1c(C(N)=O)nnc2cc(-c3cccc4c3NC(=O)C4)ccc12)C1CC1", "note": "[Compound 2-121, (R)-4-(1-cyclopropylethylamino)-7-(2-oxoindolin-7-yl)cinnoline-3-carboxamide]", "IC50": 2},
      {"smiles": "CC(C)Nc1c(C(N)=O)nnc2cc(-c3cccc(F)c3)ccc12", "note": "[Compound 2-45, 7-(3-fluorophenyl)-4-(isopropylamino)cinnoline-3-carboxamide]", "IC50": 84},
      {"smiles": "C[C@@H](Nc1c(C(N)=O)nnc2cc(-c3cccc(C(=O)N(C)C)c3)ccc12)C1CC1", "note": "[Compound 2-102, (R)-4-(1-cyclopropylethylamino)-7-(3-(dimethylcarbamoyl)phenyl)cinnoline-3-carboxamide]", "IC50": "< 6"},
      {"smiles": "Cc1nnc2cc(-c3ccc(S(C)(=O)=O)cc3)ccc2c1NC(C)C", "note": "[Compound 6-83, N-isopropyl-3-methyl-7-(4-(methylsulfonyl)phenyl)cinnolin-4-amine]", "IC50": 21600},
      {"smiles": "C[C@@H](Nc1c(C(N)=O)nnc2cc(-c3ccccc3S(C)(=O)=O)ccc12)C1CC1", "note": "[Compound 2-123, (R)-4-(1-cyclopropylethylamino)-7-(2-(methylsulfonyl)phenyl)cinnoline-3-carboxamide]", "IC50": 430},
      {"smiles": "CC(C)Nc1c(C(N)=O)nnc2cc(-c3cnn(C)c3)ccc12", "note": "[Compound 2-35, 4-(isopropylamino)-7-(1-methyl-1H-pyrazol-4-yl)cinnoline-3-carboxamide]", "IC50": 9},
      {"smiles": "CCC(C)Sc1c(C(N)=O)nnc2cc(-c3ccc(S(C)(=O)=O)cc3)ccc12", "note": "(stereo not drawn) [Compound 2-243, 4-(sec-butylthio)-7-(4-(methylsulfonyl)phenyl)cinnoline-3-carboxamide]", "IC50": 12000},
      {"smiles": "CC(C)Nc1c(C(N)=O)nnc2cc(Nc3ccccc3)ccc12", "note": "[Compound 4-78, 4-(isopropylamino)-7-(phenylamino)cinnoline-3-carboxamide]", "IC50": 72},
      {"smiles": "CN(C)c1ccc(-c2ccc3c(N)c(C(N)=O)nnc3c2)cc1", "note": "[Compound 1-7, 4-amino-7-(4-(dimethylamino)phenyl)cinnoline-3-carboxamide]", "IC50": 130},
      {"smiles": "CCNc1c(C(N)=O)nnc2cc(-c3ccc(S(C)(=O)=O)cc3)ccc12", "note": "[Compound 2-93, 4-(ethylamino)-7-(4-(methylsulfonyl)phenyl)cinnoline-3-carboxamide]", "IC50": 46},
      {"smiles": "CC(C)Nc1c(C(N)=O)nnc2ccc(-c3cn[nH]c3)cc12", "note": "[Compound 2-127, 4-(isopropylamino)-6-(1H-pyrazol-4-yl)cinnoline-3-carboxamide]", "IC50": "< 6"},
      {"smiles": "COc1cc(C(=O)N(C)C)ccc1-c1ccc2c(N[C@H](C)C3CC3)c(C(N)=O)nnc2c1", "note": "[Compound 2-118, (R)-4-(1-cyclopropylethylamino)-7-(4-(dimethylcarbamoyl)-2-methoxyphenyl)cinnoline-3-carboxamide]", "IC50": 10},
      {"smiles": "COc1ncccc1Nc1ccc2c(NC(C)C)c(C(N)=O)nnc2c1", "note": "[Compound 4-190, 4-(isopropylamino)-7-(2-methoxypyridin-3-ylamino)cinnoline-3-carboxamide]", "IC50": 31},
      {"smiles": "NC(=O)c1nnc2cc(-c3ccncc3)ccc2c1NCCCO", "note": "[Compound 2-136, 4-(3-hydroxypropylamino)-7-(pyridin-4-yl)cinnoline-3-carboxamide]", "IC50": 120},
      {"smiles": "COc1ccccc1-c1ccc2c(NC(C)C)c(C(N)=O)nnc2c1", "note": "[Compound 2-96, 4-(isopropylamino)-7-(2-methoxyphenyl)cinnoline-3-carboxamide]", "IC50": 350},
      {"smiles": "CC(C)Nc1c(-c2nccc(=O)[nH]2)nnc2cc(-c3ccc(S(C)(=O)=O)cc3)ccc12", "note": "[Compound 3-187, 2-(4-(isopropylamino)-7-(4-(methylsulfonyl)phenyl)cinnolin-3-yl)pyrimidin-4(3H)-one]", "IC50": 280},
      {"smiles": "CNC(=O)c1nnc2cc(-c3ccc(S(C)(=O)=O)cc3)ccc2c1NC(C)C", "note": "[Compound 12-227, 4-(Isopropylamino)-N-methyl-7-(4-(methylsulfonyl)phenyl)cinnoline-3-carboxamide]", "IC50": 410},
      {"smiles": "COc1ccccc1Nc1ccc2c(NC(C)C)c(C(N)=O)nnc2c1", "note": "[Compound 4-189, 4-(isopropylamino)-7-(2-methoxyphenylamino)cinnoline-3-carboxamide]", "IC50": 68},
      {"smiles": "CNC(=O)c1nnc2cc(-c3ccc(S(C)(=O)=O)cc3)ccc2c1NC", "note": "[Compound 12-229, N-methyl-4-(methylamino)-7-(4-(methylsulfonyl)phenyl)cinnoline-3-carboxamide]", "IC50": "> 1000"},
      {"smiles": "COc1cccc(-c2ccc3c(NC(C)C)c(C(N)=O)nnc3c2)c1", "note": "[Compound 2-97, 4-(isopropylamino)-7-(3-methoxyphenyl)cinnoline-3-carboxamide]", "IC50": 46},
      {"smiles": "CC(C)Nc1c(C(N)=O)nnc2cc(-c3ccccc3F)ccc12", "note": "[Compound 2-47, 7-(2-fluorophenyl)-4-(isopropylamino)cinnoline-3-carboxamide]", "IC50": 210},
      {"smiles": "CS(=O)(=O)c1ccc(-c2ccc3c(NCC4CCOCC4)c(C(N)=O)nnc3c2)cc1", "note": "[Compound 2-89, 7-(4-(methylsulfonyl)phenyl)-4-((tetrahydro-2H-pyran-4-yl)methylamino)cinnoline-3-carboxamide]", "IC50": 110},
      {"smiles": "CC(C)Nc1c(C(N)=O)nnc2cc(-c3cscn3)ccc12", "note": "[Compound 5-55, 4-(isopropylamino)-7-(thiazol-4-yl)cinnoline-3-carboxamide]", "IC50": 13},
      {"smiles": "CC(C)Nc1c(Cl)nnc2cc(-c3ccc(S(C)(=O)=O)cc3)ccc12", "note": "[Compound 3-84, 3-chloro-N-isopropyl-7-(4-(methylsulfonyl)phenyl) cinnolin-4-amine]", "IC50": 1600},
      {"smiles": "CC[C@@H](C)Nc1c(C#N)nnc2cc(-c3ccc(S(C)(=O)=O)cc3)ccc12", "note": "[Compound 2-38, (R)-4-(sec-butylamino)-7-(4-(methylsulfonyl)phenyl)cinnoline-3-carbonitrile]", "IC50": 550},
      {"smiles": "C=C(C)c1ccc2c(N[C@H](C)C3CC3)c(C(=O)NC)nnc2c1", "note": "[Compound 14-235, (R)-4-(1-cyclopropylethylamino)-N-methyl-7-(prop-1-en-2-yl)cinnoline-3-carboxamide]", "IC50": 1600},
      {"smiles": "CN(C)c1cccc(-c2ccc3c(N)c(C(N)=O)nnc3c2)c1", "note": "[Compound 1-8, 4-amino-7-(3-(dimethylamino)phenyl)cinnoline-3-carboxamide]", "IC50": 250},
      {"smiles": "CC(C)Nc1c(C#N)nnc2ccc(-c3cn[nH]c3)cc12", "note": "[Compound 2-128, 4-(isopropylamino)-6-(1H-pyrazol-4-yl)cinnoline-3-carbonitrile]", "IC50": 120},
      {"smiles": "COc1cc(N2CCOC2=O)ccc1-c1ccc(OC)c(-c2ccc3c(N[C@H](C)C4CC4)c(C(N)=O)nnc3c2)c1", "note": "[Compound 9-208, (R)-4-(1-cyclopropylethylamino)-7-(2′,4-dimethoxy-4′-(2-oxooxazolidin-3-yl)biphenyl-3-yl)cinnoline-3-carboxamide]", "IC50": 1100},
      {"smiles": "C[C@@H](Nc1c(C(N)=O)nnc2cc(-c3ccn(C)c(=O)c3)ccc12)C1CC1", "note": "[Compound 2-122, (R)-4-(1-cyclopropylethylamino)-7-(1-methyl-2-oxo-1,2-dihydropyridin-4-yl)cinnoline-3-carboxamide]", "IC50": 8},
      {"smiles": "C[C@@H](Nc1c(C(N)=O)nnc2cc(-c3ccc(C(=O)N(C)C)cc3)ccc12)C1CC1", "note": "[Compound 2-114, (R)-4-(1-cyclopropylethylamino)-7-(4-(dimethylcarbamoyl)phenyl)cinnoline-3-carboxamide]", "IC50": 0.5},
      {"smiles": "CC(C)Nc1c(C(N)=O)nnc2cc(-c3cncnc3)ccc12", "note": "[Compound 2-33, 4-(isopropylamino)-7-(pyrimidin-5-yl)cinnoline-3-carboxamide]", "IC50": 210},
      {"smiles": "CC(C)(C)Nc1c(C(N)=O)nnc2cc(-c3ccc(S(C)(=O)=O)cc3)ccc12", "note": "[Compound 2-91, 4-(tert-butylamino)-7-(4-(methylsulfonyl)phenyl)cinnoline-3-carboxamide]", "IC50": 45},
      {"smiles": "COc1ccc(N2CCOC2=O)cc1-c1ccc2c(N[C@H](C)C3CC3)c(C(N)=O)nnc2c1", "note": "[Compound 9-206, (R)-4-(1-cyclopropylethylamino)-7-(2-methoxy-5-(2-oxooxazolidin-3-yl)phenyl)cinnoline-3-carboxamide]", "IC50": 54},
      {"smiles": "CS(=O)(=O)c1ccc(-c2ccc3c(NC4CCOCC4)c(C(N)=O)nnc3c2)cc1", "note": "[Compound 2-25, 7-(4-(methylsulfonyl)phenyl)-4-(tetrahydro-2H-pyran-4-ylamino)cinnoline-3-carboxamide]", "IC50": 23}
    ]}
  ]
}
